Article PMC2981508 (Science (New York, N.Y.), 2009)

Experiments:
[1] = tested on: DU145 prostate cancer xenografts; experiment: AR-negative DU145 prostate cancer xenografts; design: species or system mice; settings: mouse, in vivo
[2] = tested on: AR recruitment to PSA enhancer and TMPRSS2 enhancer in LNCaP/AR cells; experiment: Chromatin immunoprecipitation of AR in LNCaP/AR cells; type: cell-based, human
[3] = tested on: AR target genes PSA and TMPRSS2 in LNCaP/AR cells; experiment: qRT-PCR of AR-dependent genes in LNCaP/AR cells; type: cell-based, human; settings: androgen-depleted media 5% CSS, 8 hours, 1 and 10 μM
LNCaP/AR tumors = experiment: LNCaP/AR xenograft model of CRPC in castrate male mice
[4] = Plasma levels in LNCaP/AR tumor-bearing mice; settings: 10 mg/kg oral daily, 20 hours after the final dose on day 28
[5] = tested on: AR recruitment to PSA enhancer and TMPRSS2 enhancer in parental LNCaP cells; experiment: Chromatin immunoprecipitation of AR in parental LNCaP cells; type: cell-based, human
AR = settings: cited from earlier work
VP16-AR fusion protein = type: cell-based; settings: Cos-7 cells, 24 hours
[6] = tested on: PSA and TMPRSS2 in parental LNCaP cells; experiment: Antagonism of R1881 induction of PSA and TMPRSS2 in parental LNCaP cells; type: cell-based, human
VCaP cells [7] = experiment: VCaP apoptosis; type: cell-based, human; settings: 10 μM, 1 or 3 days, PARP cleavage
VCaP cells [8] = experiment: VCaP cell proliferation; type: cell-based, human; settings: 1 and 10 μM, media containing FBS
[9] = tested on: DU145 human prostate cancer cells; experiment: Growth of AR-negative DU145 cells in vitro; type: cell-based
serum PSA = experiment: Phase I/II clinical trial in men with CRPC; type: in vivo, human

SMILES: CC(O)(CS(=O)(=O)c1ccc(F)cc1)C(=O)Nc1ccc(C#N)c(C(F)(F)F)c1 (stereo not drawn) [bicalutamide, reference compound]
- growth of AR-negative DU145 xenografts [1]: neither bicalutamide nor RD162 impaired the growth
- AR recruitment to PSA enhancer and TMPRSS2 enhancer [2]: promoted AR recruitment
- Expression of AR target genes PSA and TMPRSS2 (agonist activity) [3]: induced
- Tumors progressed on treatment (of 12) (LNCaP/AR tumors; 10 mg/kg oral daily, 28 days): seven tumors
- Tumors regressed (12 tumors per group) (LNCaP/AR tumors; 10 mg/kg oral daily, 28 days): one tumor regressed by 50%
- Tumors with stable disease (of 12) (LNCaP/AR tumors; 10 mg/kg oral daily, 28 days): four tumors
- increase in tumor volume of progressing tumors (LNCaP/AR tumors; 10 mg/kg oral daily, 28 days): up to 5 fold
- Median time to tumor progression (LNCaP/AR tumors; continual 10 mg/kg oral daily treatment): 35 days
- Plasma levels (mean) [4]: 40 µM
- Plasma levels in all mice [4]: exceeded 25 μM
- AR recruitment to PSA enhancer and TMPRSS2 enhancer [5]: only R1881 promoted recruitment

SMILES: CC1(C)C(=O)N(c2ccc(C#N)c(C(F)(F)F)c2)C(=S)N1CCCCO [RU59063]
- affinity for AR, fold reduced compared to testosterone (AR): 3 fold

SMILES: C[C@]1(O)CC[C@H]2[C@@H]3CCC4=CC(=O)CCC4=C3C=C[C@@]21C [R1881, reference compound]
- Activation of VP16-AR (VP16-AR fusion protein): activated VP16-AR
- AR recruitment to PSA enhancer and TMPRSS2 enhancer [2]: promoted AR recruitment
- AR recruitment to PSA enhancer and TMPRSS2 enhancer [5]: only R1881 promoted recruitment

SMILES: CNC(=O)c1ccc(N2C(=S)N(c3ccc(C#N)c(C(F)(F)F)c3)C(=O)C2(C)C)cc1F [MDV3100]
- Antagonism of induction of PSA and TMPRSS2 by R1881 [6]: antagonized induction
- Apoptosis in VCaP cells (VCaP cells [7]): induced apoptosis
- Growth of VCaP cells (VCaP cells [8]): suppressed growth
- Growth suppression in AR-negative DU145 cells [9]: not observed
- AR recruitment to PSA enhancer and TMPRSS2 enhancer [2]: Neither RD162 nor MDV3100 recruited AR
- Expression of AR target genes PSA and TMPRSS2 (agonist activity) [3]: do not have agonist activity
- Tumor responses (LNCaP/AR tumors; MDV3100 treatment (fig. S5)): Tumor responses were also observed
- Patients with sustained decline in serum PSA levels for at least 12 weeks (of 30) (serum PSA; 30 mg or 60 mg daily oral): Twenty-two
- Tolerability (serum PSA; 30 mg or 60 mg daily oral): well tolerated
- patients remaining on study longer than 25 weeks (of 30) (serum PSA; 30 mg or 60 mg daily oral): 11 patients
- Percent of patients with sustained declines (by >50 percent) in serum PSA (serum PSA; first 30 patients): 43%
- AR recruitment to PSA enhancer and TMPRSS2 enhancer [5]: Neither RD162 nor MDV3100 recruited AR
